# Laboratory results taken from patent US10577363B2, “Substituted piperidine compounds” (EPIZYME, INC., priority 2014, dated 2020).
# Target: SMYD3 (Homo sapiens (Human), UniProt Q9H7B4)
# Assay: SMYD3 biochemical assay (SPA, 3H-SAM methylation of MEKK2 protein substrate)
# Details: read-out: SMYD3 Biochem IC50 (μM)*
# Procedure, shortened: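 Methylation of N-terminally GST-tagged MEKK2 by untagged full-length human SMYD3, using 3H-SAM, in pH 8.0 Tris buffer with TCEP, BSG and Tween 20; enzyme and compound sat 30 min at room temperature before substrate addition. Stopped with 100 uM (final) cold SAM; incorporation read by scintillation proximity as dpm/cpm.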
row,SMILES,IC50
1,"C[C@@H]1C[C@@H](NC(=O)c2cc(C3CC3)on2)CCN1C(=O)CCCN [compound 208, N-((2R,4S)-1-(4-aminobutanoyl)-2-methylpiperidin-4-yl)-5-cyclopropylisoxazole-3-carboxamide]",3.82 µM
2,"C[C@@H]1C[C@@H](NC(=O)c2cc(C3CC3)on2)CCN1S(=O)(=O)CCCN [compound 209, N-((2R,4S)-1-((3-aminopropyl)sulfonyl)-2-methylpiperidin-4-yl)-5-cyclopropylisoxazole-3-carboxamide]",0.1 µM
3,"NCCCC(=O)N1C2CCCC1CC(NC(=O)c1cc(C3CC3)on1)C2 (stereo not drawn) [compound 211, N-(9-(4-aminobutanoyl)-9-azabicyclo[3.3.1]nonan-3-yl)-5-cyclopropylisoxazole-3-carboxamide]",5.85 µM
4,"COCCS(=O)(=O)N1CC[C@H](NC(=O)c2cc(C3CC3)on2)C[C@H]1C [compound 215, 5-cyclopropyl-N-((2R,4S)-1-((2-methoxyethyl)sulfonyl)-2-methylpiperidin-4-yl)isoxazole-3-carboxamide]",> 10 µM
5,"C[C@@H]1C[C@H](NC(=O)c2cc(C3CC3)on2)CCN1S(=O)(=O)C1CC1 [compound 216, 5-cyclopropyl-N-((2R,4R)-1-(cyclopropylsulfonyl)-2-methylpiperidin-4-yl)isoxazole-3-carboxamide]",> 10 µM
6,"CNS(=O)(=O)N1CC[C@@H](NC(=O)c2cc(C3CC3)on2)C[C@H]1C [compound 217, 5-cyclopropyl-N-((2R,4R)-2-methyl-1-(N-methylsulfamoyl)piperidin-4-yl)isoxazole-3-carboxamide]",6.76 µM
7,"CC(C)(C)C1CC(NC(=O)c2cc(C3CC3)on2)CCN1C(=O)CCCN (stereo not drawn) [compound 219, N-(1-(4-aminobutanoyl)-2-(tert-butyl)piperidin-4-yl)-5-cyclopropylisoxazole-3-carboxamide]",6.32 µM
8,"NCCCC(=O)N1CC[C@@H](NC(=O)c2cc(C3CC3)on2)[C@H](c2ccccc2)C1 [compound 220, N-((3R,4R)-1-(4-aminobutanoyl)-3-phenylpiperidin-4-yl)-5-cyclopropylisoxazole-3-carboxamide]",2.52 µM
9,"C[C@H]1CC(NC(=O)c2cc(C3CC3)on2)CCN1C(=O)CC1(O)CCNCC1 (stereo partly drawn) [compound 223, 5-cyclopropyl-N-((2S)-1-(2-(4-hydroxypiperidin-4-yl)acetyl)-2-methylpiperidin-4-yl)isoxazole-3-carboxamide]",7.19 µM
10,"C[C@@H]1CC(NC(=O)c2cc(C3CC3)on2)CCN1C(=O)C1(C)CCNCC1 (stereo partly drawn) [compound 224, 5-cyclopropyl-N-((2R)-2-methyl-1-(4-methylpiperidine-4-carbonyl)piperidin-4-yl)isoxazole-3-carboxamide]",1.42 µM
11,"C[C@@H]1C[C@@H](NC(=O)c2cc(C3CC3)on2)CCN1C(=O)CC(O)CN (stereo partly drawn) [compound 225, N-((2R,4S)-1-(4-amino-3-hydroxybutanoyl)-2-methylpiperidin-4-yl)-5-cyclopropylisoxazole-3-carboxamide]",9.05 µM
12,"CC(C)CS(=O)(=O)N1CC[C@H](NC(=O)c2cc(C3CC3)on2)C[C@@H]1C [compound 230, 5-cyclopropyl-N-((2S,4S)-1-(isobutylsulfonyl)-2-methylpiperidin-4-yl)isoxazole-3-carboxamide]",0.472 µM
13,"CCOC(=O)CS(=O)(=O)N1CC[C@H](NC(=O)c2cc(C3CC3)on2)C[C@@H]1C [compound 231, ethyl 2-(((2S,4S)-4-(5-cyclopropylisoxazole-3-carboxamido)-2-methylpiperidin-1-yl)sulfonyl)acetate]",1.17 µM
14,"C[C@H]1C[C@@H](NC(=O)c2cc(C3CC3)on2)CCN1S(=O)(=O)CC(F)(F)F [compound 232, 5-cyclopropyl-N-((2S,4S)-2-methyl-1-((2,2,2-trifluoroethyl)sulfonyl)piperidin-4-yl)isoxazole-3-carboxamide]",3.26 µM
15,"C[C@H]1C[C@@H](NC(=O)c2cc(C3CC3)on2)CCN1S(=O)(=O)c1cn(C)cn1 [compound 234, 5-cyclopropyl-N-((2S,4S)-2-methyl-1-((1-methyl-1H-imidazol-4-yl)sulfonyl)piperidin-4-yl)isoxazole-3-carboxamide]",1.24 µM
16,"CCCS(=O)(=O)N1CC[C@H](NC(=O)c2cc(C3CC3)on2)C[C@H]1C [compound 238, 5-cyclopropyl-N-((2R,4S)-2-methyl-1-(propylsulfonyl)piperidin-4-yl)isoxazole-3-carboxamide]",> 10 µM
17,"CC(C)CS(=O)(=O)N1CC[C@H](NC(=O)c2cc(C3CC3)on2)C[C@H]1C [compound 239, 5-cyclopropyl-N-((2R,4S)-1-(isobutylsulfonyl)-2-methylpiperidin-4-yl)isoxazole-3-carboxamide]",> 10 µM
18,"CCCCS(=O)(=O)N1CC[C@H](NC(=O)c2cc(C3CC3)on2)C[C@H]1C [compound 240, N-((2R,4S)-1-(butylsulfonyl)-2-methylpiperidin-4-yl)-5-cyclopropylisoxazole-3-carboxamide]",> 10 µM
19,"C[C@H]1C[C@H](NC(=O)c2cc(C3CC3)on2)CCN1S(=O)(=O)CC(F)(F)F [compound 246, 5-cyclopropyl-N-((2S,4R)-2-methyl-1-((2,2,2-trifluoroethyl)sulfonyl)piperidin-4-yl)isoxazole-3-carboxamide]",> 10 µM
20,"C[C@H]1C[C@H](NC(=O)c2cc(C3CC3)on2)CCN1S(=O)(=O)C1CC1 [compound 247, 5-cyclopropyl-N-((2S,4R)-1-(cyclopropylsulfonyl)-2-methylpiperidin-4-yl)isoxazole-3-carboxamide]",> 10 µM

# Continued, values first:
row,IC50,SMILES
1,2.6 µM,"C[C@H]1CC(NC(=O)c2cc(C3CC3)on2)CCN1C(=O)C1(F)CCNCC1 (stereo partly drawn) [compound 207, 5-cyclopropyl-N-((2S)-1-(4-fluoropiperidine-4-carbonyl)-2-methylpiperidin-4-yl)isoxazole-3-carboxamide]"
2,0.838 µM,"C[C@@H]1C[C@H](NC(=O)c2cc(C3CC3)on2)CCN1C(=O)CCCCN [compound 212, N-((2R,4R)-1-(5-aminopentanoyl)-2-methylpiperidin-4-yl)-5-cyclopropylisoxazole-3-carboxamide]"
3,> 10 µM,"C[C@@H]1C[C@@H](NC(=O)c2cc(C3CC3)on2)CCN1S(=O)(=O)C1CC1 [compound 213, 5-cyclopropyl-N-((2R,4S)-1-(cyclopropylsulfonyl)-2-methylpiperidin-4-yl)isoxazole-3-carboxamide]"
4,> 10 µM,"CNS(=O)(=O)N1CC[C@H](NC(=O)c2cc(C3CC3)on2)C[C@H]1C [compound 214, 5-cyclopropyl-N-((2R,4S)-2-methyl-1-(N-methylsulfamoyl)piperidin-4-yl)isoxazole-3-carboxamide]"
5,> 10 µM,"NCCCC(=O)N1CC[C@H](NC(=O)c2cc(C3CC3)on2)[C@H](c2ccccc2)C1 [compound 221, N-((3R,4S)-1-(4-aminobutanoyl)-3-phenylpiperidin-4-yl)-5-cyclopropylisoxazole-3-carboxamide]"
6,4.64 µM,"C[C@H]1CC(NC(=O)c2cc(C3CC3)on2)CCN1C(=O)C12C3C4C1C1C2C3C41N (stereo partly drawn) [compound 222, N-((2S)-1-(4-aminocubane-1-carbonyl)-2-methylpiperidin-4-yl)-5-cyclopropylisoxazole-3-carboxamide]"
7,2.38 µM,"C[C@H]1CC(NC(=O)c2cc(C3CC3)on2)CCN1C(=O)CC1CCCC(N)C1 (stereo partly drawn) [compound 226, N-((2S)-1-(2-(3-aminocyclohexyl)acetyl)-2-methylpiperidin-4-yl)-5-cyclopropylisoxazole-3-carboxamide]"
8,1.28 µM,"C[C@H]1C[C@@H](NC(=O)c2cc(C3CC3)on2)CCN1C(=O)CCCCN [compound 228, N-((2S,4S)-1-(5-aminopentanoyl)-2-methylpiperidin-4-yl)-5-cyclopropylisoxazole-3-carboxamide]"
9,0.863 µM,"CCCS(=O)(=O)N1CC[C@H](NC(=O)c2cc(C3CC3)on2)C[C@@H]1C [compound 229, 5-cyclopropyl-N-((2S,4S)-2-methyl-1-(propylsulfonyl)piperidin-4-yl)isoxazole-3-carboxamide]"
10,2.36 µM,"COCCS(=O)(=O)N1CC[C@H](NC(=O)c2cc(C3CC3)on2)C[C@@H]1C [compound 233, 5-cyclopropyl-N-((2S,4S)-1-((2-methoxyethyl)sulfonyl)-2-methylpiperidin-4-yl)isoxazole-3-carboxamide]"
11,1.04 µM,"C[C@H]1C[C@@H](NC(=O)c2cc(C3CC3)on2)CCN1S(=O)(=O)CCC(F)(F)F [compound 236, 5-cyclopropyl-N-((2S,4S)-2-methyl-1-((3,3,3-trifluoropropyl)sulfonyl)piperidin-4-yl)isoxazole-3-carboxamide]"
12,3.46 µM,"CC(C)OCCS(=O)(=O)N1CC[C@H](NC(=O)c2cc(C3CC3)on2)C[C@@H]1C [compound 237, 5-cyclopropyl-N-((2S,4S)-1-((2-isopropoxyethyl)sulfonyl)-2-methylpiperidin-4-yl)isoxazole-3-carboxamide]"
13,> 10 µM,"C[C@@H]1C[C@@H](NC(=O)c2cc(C3CC3)on2)CCN1S(=O)(=O)c1ccc(Cl)nc1 [compound 241, N-((2R,4S)-1-((6-chloropyridin-3-yl)sulfonyl)-2-methylpiperidin-4-yl)-5-cyclopropylisoxazole-3-carboxamide]"
14,> 10 µM,"C[C@@H]1C[C@@H](NC(=O)c2cc(C3CC3)on2)CCN1S(=O)(=O)N1CCCC1 [compound 242, 5-cyclopropyl-N-((2R,4S)-2-methyl-1-(pyrrolidin-1-ylsulfonyl)piperidin-4-yl)isoxazole-3-carboxamide]"
15,1.76 µM,"C[C@@H]1C[C@@H](NC(=O)c2cc(C3CC3)on2)CCN1S(=O)(=O)N1CCN(C)CC1 [compound 243, 5-cyclopropyl-N-((2R,4S)-2-methyl-1-((4-methylpiperazin-1-yl)sulfonyl)piperidin-4-yl)isoxazole-3-carboxamide]"
16,> 10 µM,"CCOC(=O)CS(=O)(=O)N1CC[C@@H](NC(=O)c2cc(C3CC3)on2)C[C@@H]1C [compound 245, ethyl 2-(((2S,4R)-4-(5-cyclopropylisoxazole-3-carboxamido)-2-methylpiperidin-1-yl)sulfonyl)acetate]"
